Laboratory results as given in ChEMBL document CHEMBL5113469, “Synthesis and biological evaluation of a tumor-selective degrader of PARP1” (Bioorg Med Chem, 2022).
Each block holds one compound with its values, some of them ahead of it. Activity calls are given as the source filed them. The calls are words filed in the database; no cut-off is given here.

Tests used:
CAPAN-1 = test: Antiproliferative activity against human CAPAN-1 cells assessed as cell growth inhibition incubated for 5 days by MTT assay; assay type: functional, cell-based; conditions: CAPAN-1, 120 h
[1] = target: T1, Protein cereblon/Poly [ADP-ribose] polymerase 1 (Homo sapiens, UniProt P09874+Q96SW2); test: PROTAC activity at CRBN/PARP1 in human MDA-MB-231 cells assessed as induction of PARP1 degradation at 1 uM incubated for 24 hrs by western blot analysis; assay type: cell-based
Target sequence in this assay (P09874 2-1014 limits assumed): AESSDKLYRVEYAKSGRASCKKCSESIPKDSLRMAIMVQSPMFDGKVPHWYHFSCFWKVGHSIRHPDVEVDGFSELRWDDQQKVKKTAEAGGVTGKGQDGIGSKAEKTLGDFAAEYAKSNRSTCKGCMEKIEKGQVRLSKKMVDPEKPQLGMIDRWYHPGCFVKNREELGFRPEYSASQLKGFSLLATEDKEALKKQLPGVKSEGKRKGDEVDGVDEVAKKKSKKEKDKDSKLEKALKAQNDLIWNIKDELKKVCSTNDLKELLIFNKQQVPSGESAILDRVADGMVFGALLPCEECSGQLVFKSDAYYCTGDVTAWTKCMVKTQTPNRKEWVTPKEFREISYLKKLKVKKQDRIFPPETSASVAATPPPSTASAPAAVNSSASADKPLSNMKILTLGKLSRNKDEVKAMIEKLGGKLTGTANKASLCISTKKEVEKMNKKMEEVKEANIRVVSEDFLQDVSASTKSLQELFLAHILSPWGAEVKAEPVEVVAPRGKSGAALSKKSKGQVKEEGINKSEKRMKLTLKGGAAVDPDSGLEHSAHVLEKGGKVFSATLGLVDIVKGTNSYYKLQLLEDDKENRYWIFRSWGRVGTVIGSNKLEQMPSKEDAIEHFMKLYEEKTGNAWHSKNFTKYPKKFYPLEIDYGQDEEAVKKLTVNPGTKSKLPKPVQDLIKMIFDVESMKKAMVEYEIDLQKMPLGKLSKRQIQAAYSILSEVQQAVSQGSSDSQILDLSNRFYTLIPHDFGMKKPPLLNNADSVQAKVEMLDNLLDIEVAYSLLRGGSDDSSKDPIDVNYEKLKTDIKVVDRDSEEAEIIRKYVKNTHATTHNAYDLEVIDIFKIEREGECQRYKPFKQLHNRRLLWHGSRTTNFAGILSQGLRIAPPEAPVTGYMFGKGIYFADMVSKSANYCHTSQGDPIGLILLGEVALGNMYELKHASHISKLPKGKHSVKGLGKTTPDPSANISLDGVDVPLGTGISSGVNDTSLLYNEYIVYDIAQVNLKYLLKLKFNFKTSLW
Target sequence in this assay (Q96SW2 whole entry partner): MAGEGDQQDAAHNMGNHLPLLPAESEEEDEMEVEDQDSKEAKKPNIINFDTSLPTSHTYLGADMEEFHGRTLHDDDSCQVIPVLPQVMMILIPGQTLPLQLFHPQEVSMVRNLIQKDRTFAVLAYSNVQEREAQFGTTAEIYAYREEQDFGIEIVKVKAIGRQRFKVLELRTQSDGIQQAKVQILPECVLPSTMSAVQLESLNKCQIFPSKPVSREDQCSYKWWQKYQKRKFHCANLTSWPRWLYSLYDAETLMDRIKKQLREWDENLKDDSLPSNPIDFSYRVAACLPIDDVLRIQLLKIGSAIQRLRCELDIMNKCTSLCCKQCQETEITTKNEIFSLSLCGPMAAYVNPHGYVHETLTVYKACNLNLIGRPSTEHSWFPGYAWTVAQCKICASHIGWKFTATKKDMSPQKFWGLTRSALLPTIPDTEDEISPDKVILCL

MDA-MB-468 = test: Antiproliferative activity against human MDA-MB-468 cells assessed as cell growth inhibition incubated for 5 days by MTT assay; assay type: functional, cell-based; conditions: MDA-MB-468, 120 h
MDA-MB-436 = test: Antiproliferative activity against human MDA-MB-436 cells assessed as cell growth inhibition incubated for 5 days by MTT assay; assay type: functional, cell-based; conditions: MDA-MB-436, 120 h
MDA-MB-231 [2] = test: Antiproliferative activity against human MDA-MB-231 cells assessed as cell growth inhibition incubated for 5 days by MTT assay; assay type: functional, cell-based; conditions: MDA-MB-231, 120 h
MDA-MB-231 [3] = test: Induction of cell cycle arrest in human MDA-MB-231 cells assessed as accumulation at G2/M phase at 5 uM incubated for 24 hrs by propidium iodide staining based flow cytometry analysis (reference value: 27.14 %); assay type: functional
MDA-MB-231 [4] = test: Induction of cell cycle arrest in human MDA-MB-231 cells assessed as accumulation at G2/M phase at 0.312 uM incubated for 24 hrs by propidium iodide staining based flow cytometry analysis (reference value: 27.14 %); assay type: functional
MDA-MB-231 [5] = test: Induction of cell cycle arrest in human MDA-MB-231 cells assessed as accumulation at S phase at 1.25 uM incubated for 24 hrs by propidium iodide staining based flow cytometry analysis (reference value: 37.88 %); assay type: functional
MDA-MB-231 [6] = test: Induction of cell cycle arrest in human MDA-MB-231 cells assessed as accumulation at G0/G1 phase at 2.5 uM incubated for 24 hrs by propidium iodide staining based flow cytometry analysis (reference value: 32.62 %); assay type: functional
MDA-MB-231 [7] = test: Induction of cell cycle arrest in human MDA-MB-231 cells assessed as accumulation at G2/M phase at 1.25 uM incubated for 24 hrs by propidium iodide staining based flow cytometry analysis (reference value: 27.14 %); assay type: functional
MDA-MB-231 [8] = test: Induction of cell cycle arrest in human MDA-MB-231 cells assessed as accumulation at G2/M phase at 0.625 uM incubated for 24 hrs by propidium iodide staining based flow cytometry analysis (reference value: 27.14 %); assay type: functional
MDA-MB-231 [9] = test: Induction of cell cycle arrest in human MDA-MB-231 cells assessed as accumulation at S phase at 5 uM incubated for 24 hrs by propidium iodide staining based flow cytometry analysis (reference value: 37.88 %); assay type: functional
MDA-MB-231 [10] = test: Induction of cell cycle arrest in human MDA-MB-231 cells assessed as accumulation at G0/G1 phase at 0.312 uM incubated for 24 hrs by propidium iodide staining based flow cytometry analysis (reference value: 32.62 %); assay type: functional
MDA-MB-231 [11] = test: Induction of cell cycle arrest in human MDA-MB-231 cells assessed as accumulation at S phase at 0.625 uM incubated for 24 hrs by propidium iodide staining based flow cytometry analysis (reference value: 37.88 %); assay type: functional
MDA-MB-231 [12] = test: Induction of cell cycle arrest in human MDA-MB-231 cells assessed as accumulation at G0/G1 phase at 0.625 uM incubated for 24 hrs by propidium iodide staining based flow cytometry analysis (reference value: 32.62 %); assay type: functional
MDA-MB-231 [13] = test: Induction of cell cycle arrest in human MDA-MB-231 cells assessed as accumulation at S phase at 2.5 uM incubated for 24 hrs by propidium iodide staining based flow cytometry analysis (reference value: 37.88 %); assay type: functional
MDA-MB-231 [14] = test: Induction of cell cycle arrest in human MDA-MB-231 cells assessed as accumulation at G0/G1 phase at 5 uM incubated for 24 hrs by propidium iodide staining based flow cytometry analysis (reference value: 32.62 %); assay type: functional
MDA-MB-231 [15] = test: Induction of cell cycle arrest in human MDA-MB-231 cells assessed as accumulation at S phase at 0.312 uM incubated for 24 hrs by propidium iodide staining based flow cytometry analysis (reference value: 37.88 %); assay type: functional
MDA-MB-231 [16] = test: Induction of cell cycle arrest in human MDA-MB-231 cells assessed as accumulation at G0/G1 phase at 1.25 uM incubated for 24 hrs by propidium iodide staining based flow cytometry analysis (reference value: 32.62 %); assay type: functional
MDA-MB-231 [17] = test: Induction of cell cycle arrest in human MDA-MB-231 cells assessed as accumulation at G2/M phase at 2.5 uM incubated for 24 hrs by propidium iodide staining based flow cytometry analysis (reference value: 27.14 %); assay type: functional
HepG2 = test: Antiproliferative activity against human HepG2 cells assessed as cell growth inhibition incubated for 5 days by MTT assay; assay type: functional, cell-based; conditions: time 5.0 day
L02 = test: Antiproliferative activity against human L02 cells assessed as cell growth inhibition incubated for 5 days by MTT assay; assay type: toxicity, cell-based; conditions: l02, 120 h, time 5 day
HeLa = test: Antiproliferative activity against human HeLa cells assessed as cell growth inhibition incubated for 5 days by MTT assay; assay type: functional, cell-based; conditions: time 5.0 day
MDA-MB-231 [18] = test: Induction of cell morphological changes in human MDA-MB-231 at 1 uM incubated for 24 hrs by DAPI and Rhodamine staining based immunofluorescence assay; assay type: functional
NCI-H2228 = test: Antiproliferative activity against human NCI-H2228 cells assessed as cell growth inhibition incubated for 5 days by MTT assay; assay type: functional, cell-based; conditions: time 5.0 day
SW620/5-FU = test: Antiproliferative activity against human SW620/5-FU cells assessed as cell growth inhibition incubated for 5 days by MTT assay; assay type: functional, cell-based; conditions: time 5.0 day
MDA-MB-231 [19] = test: Antiproliferative activity against human MDA-MB-231 cells assessed as colony growth inhibition at 0.625 to 10 uM incubated for 14 days by MTT assay; assay type: functional, cell-based; conditions: dose 0.625-10 µM, time 14.0 day, DDE = dose-dependent effect
[20] = target: Poly [ADP-ribose] polymerase 1 (Homo sapiens, UniProt P09874); test: Binding affinity to PARP1 (unknown origin)
Poly [ADP-ribose] polymerase 1, sequence (P09874 whole entry): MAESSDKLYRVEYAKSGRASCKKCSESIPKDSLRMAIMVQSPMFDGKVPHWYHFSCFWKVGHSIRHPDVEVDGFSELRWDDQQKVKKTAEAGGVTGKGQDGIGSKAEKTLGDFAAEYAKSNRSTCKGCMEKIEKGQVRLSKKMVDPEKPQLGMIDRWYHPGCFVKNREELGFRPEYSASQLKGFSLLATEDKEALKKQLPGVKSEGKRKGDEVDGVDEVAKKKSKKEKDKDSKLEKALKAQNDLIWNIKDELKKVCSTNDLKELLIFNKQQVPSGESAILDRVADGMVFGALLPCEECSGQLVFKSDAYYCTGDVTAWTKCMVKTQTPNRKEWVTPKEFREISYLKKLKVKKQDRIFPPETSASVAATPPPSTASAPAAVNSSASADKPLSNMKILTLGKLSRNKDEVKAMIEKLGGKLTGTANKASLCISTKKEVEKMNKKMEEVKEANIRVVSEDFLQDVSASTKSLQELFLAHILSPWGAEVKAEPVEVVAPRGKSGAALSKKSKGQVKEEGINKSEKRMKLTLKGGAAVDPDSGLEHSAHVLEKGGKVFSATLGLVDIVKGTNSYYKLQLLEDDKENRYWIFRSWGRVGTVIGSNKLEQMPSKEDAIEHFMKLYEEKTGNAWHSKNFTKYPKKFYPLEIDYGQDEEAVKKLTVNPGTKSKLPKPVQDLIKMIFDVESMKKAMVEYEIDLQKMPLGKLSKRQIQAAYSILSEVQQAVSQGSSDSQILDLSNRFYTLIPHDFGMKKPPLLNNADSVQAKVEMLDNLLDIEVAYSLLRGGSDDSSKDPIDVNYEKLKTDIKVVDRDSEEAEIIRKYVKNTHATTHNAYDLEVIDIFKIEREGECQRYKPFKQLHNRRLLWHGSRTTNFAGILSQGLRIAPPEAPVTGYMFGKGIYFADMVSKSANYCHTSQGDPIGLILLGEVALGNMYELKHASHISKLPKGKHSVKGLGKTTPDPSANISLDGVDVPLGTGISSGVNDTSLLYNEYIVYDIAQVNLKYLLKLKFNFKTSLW

[21] = target: T1, Protein cereblon/Poly [ADP-ribose] polymerase 1; test: PROTAC activity at CRBN/PARP1 in human MDA-MB-231 cells assessed as induction of PARP1 degradation incubated for 24 hrs by western blot analysis; assay type: cell-based
Target sequence in this assay (P09874 whole entry): as above
Target sequence in this assay (Q96SW2 whole entry): as the sequence (Q96SW2 whole entry partner) above

MV4-11 = test: Antiproliferative activity against human MV4-11 cells assessed as cell growth inhibition incubated for 5 days by MTT assay; assay type: functional, cell-based; conditions: time 5.0 day
[22] = target: T1, Protein cereblon/Poly [ADP-ribose] polymerase 1; test: PROTAC activity at CRBN/PARP1 in human MDA-MB-231 cells assessed as induction of PARP1 degradation at 1 uM incubated for 4 hrs by western blot analysis; assay type: cell-based
Target sequence in this assay (P09874 2-1014 limits assumed): as the sequence (P09874 2-1014 limits assumed) above
Target sequence in this assay (Q96SW2 whole entry partner): as the sequence (Q96SW2 whole entry partner) above

[23] = target: T1, Protein cereblon/Poly [ADP-ribose] polymerase 1; test: PROTAC activity at CRBN/PARP1 in human L02 cells assessed as induction of PARP1 degradation incubated for 24 hrs by western blot analysis; assay type: cell-based
Target sequence in this assay (P09874 whole entry): as the sequence (P09874 whole entry) above
Target sequence in this assay (Q96SW2 whole entry): as the sequence (Q96SW2 whole entry partner) above

NCI-H3122 = test: Antiproliferative activity against human NCI-H3122 cells assessed as cell growth inhibition incubated for 5 days by MTT assay; assay type: functional, cell-based; conditions: time 5.0 day
[24] = target: T1, Protein cereblon/Poly [ADP-ribose] polymerase 1; test: PROTAC activity at CRBN/PARP1 in human MDA-MB-231 cells assessed as induction of PARP1 degradation at 0.12 to 4 uM incubated for 24 hrs by western blot analysis; assay type: cell-based; conditions: dose 0.12-4 µM, DDE = dose-dependent effect
Target sequence in this assay (P09874 2-1014 limits assumed): as the sequence (P09874 2-1014 limits assumed) above
Target sequence in this assay (Q96SW2 whole entry partner): as the sequence (Q96SW2 whole entry partner) above

Structure (SMILES): O=C1CCC(N2C(=O)c3cccc(NC(=O)CNCCCCCCCCCC(=O)N4CCN(C(=O)c5cc(Cc6n[nH]c(=O)c7ccccc67)ccc5F)CC4)c3C2=O)C(=O)N1 (centres undefined)
- IC50 (CAPAN-1): 0.22 µM
- Activity [1]: Active
- IC50 (MDA-MB-468): 4.35 µM
- IC50 (MDA-MB-436): 0.13 µM
- IC50 (MDA-MB-231 [2]): 5.37 µM

Structure (SMILES): O=C1CCC(N2C(=O)c3cccc(NC(=O)CNCCCCCCCCCCC(=O)N4CCN(C(=O)c5cc(Cc6n[nH]c(=O)c7ccccc67)ccc5F)CC4)c3C2=O)C(=O)N1 (centres undefined)
- Activity (MDA-MB-231 [3]): 41.92%
- Activity (HepG2): Active
- Activity (MDA-MB-231 [4]): 28.41%
- Activity (MDA-MB-231 [5]): 30.97%
- Activity (MDA-MB-231 [6]): 32.48%
- Activity (L02): Toxic
- IC50 (CAPAN-1): 0.077 µM
- Activity (HeLa): Active
- Activity (MDA-MB-231 [7]): 35.58%
- Activity (MDA-MB-231 [18]): Active
- Activity (NCI-H2228): Active
- Activity (MDA-MB-231 [8]): 29.56%
- Activity (SW620/5-FU): Active
- Activity [1]: Active
- Activity (MDA-MB-231 [19]): Dde
- IC50 [20]: 0.00295 µM
- Activity (MDA-MB-231 [9]): 30.47%
- DC50 [21]: 0.053 µM
- Activity (MDA-MB-231 [10]): 37.11%
- Activity (MDA-MB-231 [11]): 32.14%
- Activity (MV4-11): Active
- Activity (MDA-MB-231 [12]): 36.68%
- IC50 (MDA-MB-468): 2.32 µM
- IC50 (MDA-MB-436): 0.031 µM
- Activity (MDA-MB-231 [13]): 30.55%
- Activity (MDA-MB-231 [14]): 25.81%
- Activity [22]: 90%
- IC50 (MDA-MB-231 [2]): 3.92 µM
- Activity (MDA-MB-231 [15]): 33.02%
- Activity (MDA-MB-231 [16]): 32.03%
- DC50 [23]: 3.2 µM
- Activity (MDA-MB-231 [17]): 37.16%
- Activity (NCI-H3122): Active

Structure (SMILES): O=C1CCC(N2C(=O)c3cccc(NC(=O)CNCCCCC(=O)N4CCN(C(=O)c5cc(Cc6n[nH]c(=O)c7ccccc67)ccc5F)CC4)c3C2=O)C(=O)N1 (centres undefined)
- IC50 (CAPAN-1): 6.53 µM
- IC50 (MDA-MB-468): > 20 µM
- IC50 (MDA-MB-436): 5.82 µM
- IC50 (MDA-MB-231 [2]): > 20 µM

Structure (SMILES): CN1C(=O)CCC(N2C(=O)c3cccc(NC(=O)CNCCCCCCCCCCC(=O)N4CCN(C(=O)c5cc(Cc6n[nH]c(=O)c7ccccc67)ccc5F)CC4)c3C2=O)C1=O (centres undefined)
- IC50 (CAPAN-1): 0.16 µM
- Activity [24]: Dde
- IC50 (MDA-MB-468): 4.07 µM
- IC50 (MDA-MB-436): 0.053 µM
- IC50 (MDA-MB-231 [2]): 4.58 µM

More lines, main results first:

- IC50 (MDA-MB-468): > 20 µM
- IC50 (MDA-MB-436): 4.28 µM
- IC50 (MDA-MB-231 [2]): > 20 µM
Structure (SMILES): O=C1CCC(N2C(=O)c3cccc(NC(=O)CNCCCCCC(=O)N4CCN(C(=O)c5cc(Cc6n[nH]c(=O)c7ccccc67)ccc5F)CC4)c3C2=O)C(=O)N1 (centres undefined)
- IC50 (CAPAN-1): 4.95 µM

- IC50 (MDA-MB-468): 4.19 µM
- IC50 (MDA-MB-436): 0.02 µM
Structure (SMILES): O=C(c1cc(Cc2n[nH]c(=O)c3ccccc23)ccc1F)N1CCN(C(=O)C2CC2)CC1 [OLAPARIB]
- Activity (MDA-MB-231 [3]): 39.58%
- Activity (MDA-MB-231 [4]): 26.17%
- Activity (MDA-MB-231 [5]): 33.8%
- Activity (MDA-MB-231 [6]): 28.07%
- IC50 (CAPAN-1): 0.053 µM
- Activity (MDA-MB-231 [7]): 34.71%
- Activity (MDA-MB-231 [8]): 31.86%
- Activity (MDA-MB-231 [9]): 37.59%
- Activity (MDA-MB-231 [10]): 35.88%
- Activity (MDA-MB-231 [11]): 33.33%
- Activity (MDA-MB-231 [12]): 33.68%
- Activity (MDA-MB-231 [13]): 38.31%
- Activity (MDA-MB-231 [14]): 23.6%
- Activity (MDA-MB-231 [15]): 46.21%
- Activity (MDA-MB-231 [16]): 29.71%
- Activity (MDA-MB-231 [17]): 37.91%

- Activity [1]: Active
- IC50 (MDA-MB-468): 7.75 µM
- IC50 (MDA-MB-436): 0.29 µM
- IC50 (MDA-MB-231 [2]): 10.6 µM
Structure (SMILES): O=C1CCC(N2C(=O)c3cccc(NC(=O)CNCCCCCCCC(=O)N4CCN(C(=O)c5cc(Cc6n[nH]c(=O)c7ccccc67)ccc5F)CC4)c3C2=O)C(=O)N1 (centres undefined)
- IC50 (CAPAN-1): 0.65 µM
